One assay relates to A549 (lung carcinoma). As to the kind of experiment: In vitro antiproliferation assay, A549 cells (TABLE 1 6 point assay; TABLE 2). The format is cell-based. The method, then: (§1) Certain compounds were tested against other cell types for their ability to inhibit proliferation in standard antiproliferation assays.
Assay [1] deals with H1299 (non-small cell lung carcinoma). As to the kind of experiment: In vitro antiproliferation assay, H1299 cells (TABLE 1 6 point assay; TABLE 2). The format is cell-based. The method, then:
as §1

[2] abbreviates: Homo sapiens, A549, A549 cells, 6 point assay, read-out: A549, 6pt (IC50, inhibition of proliferation).
The mark [3] stands for this setting: Homo sapiens, NCI-H1299, H1299 cells, 6 point assay, read-out: H1299, 6pt (IC50, inhibition of proliferation).
The mark [4] stands for this setting: Homo sapiens, A549, 6 point assay, A549 cells, read-out: IC50, A549 cells.
Where [5] appears, read: Homo sapiens, NCI-H1299, 6 point assay, H1299 cells, read-out: IC50, H1299 cells.
Where [6] appears, read: H1299 cells, 6 point assay, read-out: H1299, 6pt (IC50, inhibition of proliferation).

Counter-ions that a name gives are not always drawn. Like-named read-outs stand apart in the source and are kept apart here. Some results are limits rather than exact numbers.

Consider `Cc1cc(Nc2ncc(F)c(NC3C4C=CC(C4)C3C(N)=O)n2)ccc1N1CCNCC1` (racemic) [compound 108], for which the IC50 in the assay on A549 (lung carcinoma) (setting [2]) is over 10000 nM; in assay [1] (setting [3]) it was 1000 to 10000 nM. In the case of `Cc1cc(Nc2ncc(F)c(N[C@H]3C=C[C@@H](C(N)=O)C3)n2)ccc1N1CCN(C)CC1` [compound 226, (1R,4S)-cis-N4-(4-Aminocarbonylcyclopent-2-ene-1-yl)-5-fluoro-N2-[3-methyl-4-(4-methylpiperazin-1-yl)phenyl]-2,4-pyrimidinediamine], the IC50 (in the assay with A549 (lung carcinoma) (setting [4]); in assay [1] (setting [5])) was 1000 to 10000 nM throughout. On to `CN1CCN(Cc2cc3cc(Nc4ncc(F)c(N[C@H]5CCC[C@H]5C(N)=O)n4)ccc3o2)CC1` (racemic) [compound 131, Racemic-cis-N4-(2-aminocarbonylcyclopent-1-yl)-5-fluoro-N2-[2-(4-methylpiperazin-1-ylmethylene)benzofuran-5-yl]-2,4-pyrimidinediamine], for which the IC50 (with A549 (lung carcinoma) (setting [2]); in assay [1] (setting [3])) was 1000 to 10000 nM throughout. Take `CN(C)CCN1CCc2cc(Nc3ncc(F)c(NC4C5C=CC(C5)C4C(=O)NC4CCC4)n3)ccc21` (racemic) [compound 176, Racemic-(2-exo,3-exo)-N4-[3-cyclobutylaminocarbonylbicyclo[2.2.1]hept-5-en-2-yl)-N2-[1-(2-dimethylaminoethyl)-2,3-dihydroindol-5-yl]-5-fluoro-2,4-pyrimidinediamine]: the IC50 (in the assay on A549 (lung carcinoma) (setting [2]); in assay [1] (setting [3])) was at most 100 nM throughout. Consider `COc1ccc(C(C)NC(=O)[C@H]2[C@@H](Nc3nc(Nc4ccc(N5CCN(C)CC5)c(C)c4)ncc3F)[C@@H]3C=C[C@H]2C3)cc1` (stereo partly drawn) [compound 124, (1S,2S,3R,4R)-5-Fluoro-N4-(3-(R)-4-methoxy-alpha-methylbenzylaminocarbonylbicyclo[2.2.1]hept-5-en-2-yl]-N2-(3-methyl-4-(4-methylpiperazin-1-yl)phenyl]-2,4-pyrimidinediamine], for which the IC50 (with A549 (lung carcinoma) (setting [2]); in assay [1] (setting [3])) was 100 to 1000 nM in each case. As to `Cc1cc(Nc2ncc(F)c(N[C@H]3CC[C@@H](C(=O)O)C3)n2)ccc1N1CCN(C)CC1` [compound 219, (1S,3R)-N4-(3-Carboxycyclopent-1-yl)-fluoro-N2-[3-methyl-4-(4-methylpiparazin-1-yl)phenyl]-2,4-pyrimidinediamine], the IC50 (in the assay on A549 (lung carcinoma) (setting [4]); in assay [1] (setting [5])) was over 10000 nM throughout. In the case of `Cc1cc(Nc2ncc(F)c(N[C@H]3[C@@H](C(N)=O)[C@@H]4C=C[C@H]3C4)n2)ccc1N1CCN(C)CC1` [compound 142, (1R,2R,3S,4S)-N4-(3-Aminocarbonylbicyclo[2.2.1]hept-5-en-2-yl)-5-fluoro-N2-[3-methyl-4-(4-methylpiperazin-1-yl)phenyl]-2,4-pyrimidinediamine Sulfuric Acid Salt], the IC50 in assay [1] (setting [6]) is at most 100 nM. Regarding `Cc1cc(Nc2ncc(F)c(N[C@H]3CCC[C@H]3C(=O)NC3CC3)n2)ccc1N1CCN(C)CC1` (racemic) [compound 159, Racemic-cis-N4-[2-(N-cyclpropyl)aminocarbonylcyclopent-1-yl]-5-fluoro-N2-[4-(4-methylpiperazin-1-yl)-3-methylphenyl]-2,4-pyrimidinediamine], the IC50 (in the assay with A549 (lung carcinoma) (setting [2]); in assay [1] (setting [3])) was 100 to 1000 nM in each case. As for `CN1CCN(c2ccc(Nc3ncc(F)c(NC4C5C=CC(C5)C4C(N)=O)n3)cc2C(N)=O)CC1` (racemic) [compound 260, Racemic-(2-exo,3-exo)-N2-[3-aminocarbonyl-4-(4-methylpiperazin-1-yl)phenyl]-N4-(3-aminocarbonylbicyclo[2.2.1]hept-5-en-2-yl)-5-fluoro-2,4-pyrimidinediamine], the IC50 (in the assay on A549 (lung carcinoma) (setting [4]); in assay [1] (setting [5])) was 100 to 1000 nM throughout. Take `Cc1cc(Nc2ncc(F)c(N[C@H]3[C@@H](C(N)=O)[C@@H]4C=C[C@H]3C4)n2)ccc1OC1CCCN(C)C1` (mixture of isomers) [compound 147, (1R,2R,3S,4S)-N4-(3-Aminocarbonylbicyclo[2.2.1]hept-5-en-2-yl)-5-fluoro-N2-[3-methyl-4-(1-methylpiperidin-3(±)-yloxy)phenyl]-2,4-pyrimidinediamine]: the IC50 was at most 100 nM with A549 (lung carcinoma) (A549 cells, 6 point assay, read-out: A549, 6pt (IC50, inhibition of proliferation)) and at most 100 nM in assay [1] (setting [6]). `Cc1cc(Nc2ncc(F)c(NC3C4C=CC(C4)C3C(N)=O)n2)cc(C)c1N1CCN(C)CC1` (racemic) [compound 271, Racemic-(2-exo,3-exo)-N4-(3-aminocarbonylbicyclo[2.2.1]hept-5-en-2-yl)-N2-[3,5-dimethyl-4-(4-methylpiperazin-1-yl)phenyl]-5-fluoro-2,4-pyrimidinediamine]: the IC50 (in the assay on A549 (lung carcinoma) (setting [4]); in assay [1] (setting [5])) was 1000 to 10000 nM in each case.

For the molecule `Cc1cc(Nc2ncc(F)c(NC3C4C=CC(C4)C3C(N)=O)n2)ccc1N1CCN(C(C)C)CC1` (racemic) [compound 232, Racemic-(2-exo,3-exo)-N4-(3-aminocarbonylbicyclo[2.2.1]hept-5-en-2-yl)-5-fluoro-N2-[4-(4-isopropylpiperazin-1-yl)-3-methylphenyl]-2,4-pyrimidinediamine], the IC50 (in the assay with A549 (lung carcinoma) (setting [4]); in assay [1] (setting [5])) was at most 100 nM in each case. Take `Cc1ccc(Nc2ncc(F)c(N[C@H]3[C@@H](C(N)=O)[C@@H]4C=C[C@H]3C4)n2)cc1OCC(=O)N1CCOCC1` [compound 125, (1R,2R,3S,4S)-N4-(3-Aminocarbonylbicyclo[2.2.1]hept-5-en-2-yl)-5-fluoro-N2-[4-methyl-3-(morpholin-4-ylcarbonylmethyleneoxy)phenyl]-2,4-pyrimidinediamine]: the IC50 (in the assay on A549 (lung carcinoma) (setting [2]); in assay [1] (setting [3])) was at most 100 nM throughout. On to `CN(C)CCN1CCc2cc(Nc3ncc(F)c(NC4C5C=CC(C5)C4C(=O)NC4CC4)n3)ccc21` (racemic) [compound 170, Racemic-(2-exo,3-exo)-N4-[3-cyclopropylaminocarbonylbicyclo[2.2.1]hept-5-en-2-yl)-N2-[1-(2-dimethylaminoethyl)-2,3-dihydroindol-5-yl]-5-fluoro-2,4-pyrimidinediamine], for which the IC50 (in the assay with A549 (lung carcinoma) (setting [2]); in assay [1] (setting [3])) was at most 100 nM throughout. Take `CN(C)CCn1ccc2ccc(Nc3ncc(F)c(NC4C5CCC(C5)C4C(=O)NC4CC4)n3)cc21` (racemic) [compound 179, Racemic-(2-exo,3-exo)-N4-[3-cyclopropylaminocarbonylbicyclo[2.2.1]hept-2-yl)-N2-[1-(2-dimethylaminoethyl)indol-6-yl]-5-fluoro-2,4-pyrimidinediamine]: the IC50 (in the assay with A549 (lung carcinoma) (setting [2]); in assay [1] (setting [3])) was 100 to 1000 nM throughout. In the case of `Cc1cc(Nc2ncc(F)c(NC3(C(N)=O)CC=CC3)n2)ccc1N1CCN(C)CC1` [compound 238, N4-(1-Aminocarbonylcyclopent-3-ene-1-yl)-5-fluoro-N2-[3-methyl-4-(4-methylpiperazin-1-yl)phenyl]-2,4-pyrimidinediamine], the IC50 was 1000 to 10000 nM with A549 (lung carcinoma) (setting [4]) and over 10000 nM in assay [1] (setting [5]). The matching figures for `Cc1cc(Nc2ncc(F)c(N[C@@H]3[C@H](C(=O)NC4CCC4)[C@H]4C=C[C@@H]3C4)n2)ccc1N1CCN(C)CC1` [compound 193, (1S,2S,3R,4R)-N4-[3-(N-Cyclobutyl)aminocarbonylbicyclo[2.2.1]hept-5-en-2-yl]-5-fluoro-N2-[3-methyl-4-(4-methylpiperazin-1-yl)phenyl]-2,4-pyrimidinediamine]: over 10000 nM and 1000 to 10000 nM. `Cc1cc(Nc2ncc(F)c(N[C@H]3[C@@H](C(N)=O)[C@@H]4C=C[C@H]3C4)n2)ccc1N1CCN(C)CC1` [compound 144, (1R,2R,3S,4S)-N4-(3-Aminocarbonylbicyclo[2.2.1]hept-5-en-2-yl)-5-fluoro-N2-[3-methyl-4-(4-methylpiperazin-1-yl)phenyl]-2,4-pyrimidinediamine p- Toluenesulfonic Acid Salt]: the IC50 in assay [1] (setting [6]) is at most 100 nM. The same measure, in the same setting: to `Cc1cc(Nc2ncc(F)c(N[C@H]3[C@@H](C(N)=O)[C@@H]4C=C[C@H]3C4)n2)ccc1N1CCN(C)CC1` [compound 140, (1R,2R,3S,4S)-N4-(3-Aminocarbonylbicyclo[2.2.1]hept-5-en-2-yl)-5-fluoro-N2-[3-methyl-4-(4-methylpiperazin-1-yl)phenyl]-2,4-pyrimidinediamine Methanesulfonic Acid Salt] belongs at most 100 nM. Same read-out and setting: the result for `Cc1cc(Nc2ncc(F)c(N[C@H]3[C@@H](C(N)=O)[C@@H]4C=C[C@H]3C4)n2)ccc1N1CCN(C)CC1` [compound 143, (1R,2R,3S,4S)-N4-(3-Aminocarbonylbicyclo[2.2.1]hept-5-en-2-yl)-5-fluoro-N2-[3-methyl-4-(4-methylpiperazin-1-yl)phenyl]-2,4-pyrimidinediamine (S)- Mandelic Acid Salt] reads at most 100 nM. As for `Cc1cc(Nc2ncc(F)c(N[C@H]3[C@@H](C(N)=O)[C@@H]4C=C[C@H]3C4)n2)ccc1N1CCN(C)CC1` [compound 141, (1R,2R,3S,4S)-N4-(3-Aminocarbonylbicyclo[2.2.1]hept-5-en-2-yl)-5-fluoro-N2-[3-methyl-4-(4-methylpiperazin-1-yl)phenyl]-2,4-pyrimidinediamine Nitric Acid Salt], in assay [1] (setting [3]), the IC50 was at most 100 nM. With `Cc1cc(Nc2ncc(F)c(N[C@H]3[C@@H](C(N)=O)[C@@H]4C=C[C@H]3C4)n2)ccc1N1CCN(C)CC1` [compound 139, (1R,2R,3S,4S)-N4-(3-Aminocarbonylbicyclo[2.2.1]hept-5-en-2-yl)-5-fluoro-N2-[3-methyl-4-(4-methylpiperazin-1-yl)phenyl]-2,4-pyrimidinediamine Trifluoroacetic Acid Salt], the IC50 in assay [1] (setting [6]) was at most 100 nM.

For the origin of these results see patent US7868013B2, “Cycloalkyl substituted pyrimidinediamine compounds and their uses” (Rigel Pharmaceuticals, Inc., priority 2004, dated 2011).
